We go through one molecule from EP1151753B1, “PREVENTIVE AND THERAPEUTIC AGENTS FOR ARTERIOSCLEROSIS” (CCI CORPORATION, priority 1999, dated 2000).

A short description of data set [1]: Biochemical test of blood and measurement of body weight, WHHL rabbit model. It is filed as in vivo, WHHL type rabbits. The note with it: WHHL rabbits. As to the method: Now, the pharmacogenic effect of the agent of this invention for preventing and curing arteriosclerosis will be described specifically below with reference to a pharmacological test using high cholesterol-loaded rabbits and the WHHL (Watanabe heritable hyperlipidemic) rabbits forming a model of the familial high-cholesterol blood disease. The data were wholly reported by the average ± standard error (SE) and the significant differences among separate groups were determined by the Student's t-test. The risk factor, p < 0.05, was rated as forming a significance of difference.
1. Animal used and feeding conditions In the test, female and male WHHL type rabbits (SPF: Kitayama Labels K.K.) which were eight weeks old at the time of arrival at the laboratory were subjected to quarantine and domestication and visually inspected as to the general condition and, after the absence of abnormality was confirmed, put to use. The body weights at the time of starting administration (at the age of nine weeks) were in the range of 1.5 - 1.9 kg in the case of male rabbits and in the range of 1.4 - 1.8 kg in the case of female rabbits. Throughout the entire duration of the test, the animals were raised as accommodated one each in hanger cages of aluminum installed on a stainless steel rack inside a clean feeding chamber set at a temperature in the range of 20 - 26°, a relative humidity in the range of 40 - 70%, a number of ventilations in the range of 10 - 20 turns/hour, and an illumination time within the range of 12 hours (7.00 - 19:00). They were fed on a commercially available radioactively sterilized solid feed (made by Oriental Kobo K.K. and sold under the product code of "RC4") and they were left freely drinking the tap water delivered by an automatic water supplying device. 2. Setting dosage and method of administration The dosage of TMG was set at 800 mg/head/day. The TMG was solved in reagent grade ethanol. The produced solution was sprayed on the feed and the wet feed was left drying in the air. A mixed feed was prepared so as to contain 800 mg of TMG per 100 g of the feed. The mixed feed was given to the rabbits every morning at a rate of 100 g/day per head for 27 weeks for the sake of attaining oral consumption of the TMG. The feed for the control group was obtained by spraying ethanol alone on a feed and air-drying the wet feed. It was given to the rabbits of the control group at a rate of 100 g/day per head for 27 weeks. 3. Formation of groups and number of animals A control group and a TMG-administration group were formed; each group consistingof threemales and three females, namely a total of six rabbits. These animals were apportioned to the two groups randomly and nevertheless elaborately so as to avoid confusion of the children of one brood in either group to the fullest possible extent and equalize as much as permissible the average body weights and the average total cholesterol numbers in blood serum of the two groups with the body weights and the total cholesterol numbers found at the time of completion of the domestication. 4. […] The blood was centrifuged to separate blood serum and the blood serum was analyzed for the items shown in Table 5 by the use of an automatic analyzer (made by Hitachi. Ltd. and sold under the product code of "736-20"). The body weight of each rabbit was measured at the rate of once a week throughout the entire duration of the administration.

For the next data set, the system named is WHHL rabbit model. Nature of the data set: Evaluation of morbid alteration of aorta (Sudan dyeing), WHHL rabbit model. It is filed as in vivo, WHHL type rabbits. The note with it: WHHL rabbits. The source says:
1. Animal used and feeding conditions In the test, female and male WHHL type rabbits (SPF: Kitayama Labels K.K.) which were eight weeks old at the time of arrival at the laboratory were subjected to quarantine and domestication and visually inspected as to the general condition and, after the absence of abnormality was confirmed, put to use. The body weights at the time of starting administration (at the age of nine weeks) were in the range of 1.5 - 1.9 kg in the case of male rabbits and in the range of 1.4 - 1.8 kg in the case of female rabbits. Throughout the entire duration of the test, the animals were raised as accommodated one each in hanger cages of aluminum installed on a stainless steel rack inside a clean feeding chamber set at a temperature in the range of 20 - 26°, a relative humidity in the range of 40 - 70%, a number of ventilations in the range of 10 - 20 turns/hour, and an illumination time within the range of 12 hours (7.00 - 19:00). […] The blood was centrifuged to separate blood serum and the blood serum was analyzed for the items shown in Table 5 by the use of an automatic analyzer (made by Hitachi. Ltd. and sold under the product code of "736-20"). The body weight of each rabbit was measured at the rate of once a week throughout the entire duration of the administration. […]

[2] abbreviates: TMG 800 mg/head/day for 27 weeks.
[3] abbreviates: blood serum, TMG 800 mg/head/day in feed, average ± SE.

Consider `Cc1c(C)c2c(c(C)c1O)CCC(C)(C[C@H]1O[C@H](CO)[C@@H](O)[C@H](O)[C@H]1O)O2` (stereo partly drawn) [TMG, 2-(α-D-glucopyranosyl)methyl-2,5,7,8-tetramethyl chroman-6-ol], for which, in data set [1] (setting [2]), the “activity of lowering the blood serum lipids (T-CHO, TG, PL, LDL-CHO)” value is listed as “no activity” and the “biochemical test of blood” value is “no sign of abnormality”. For the same molecule, the Body weight in data set [1] (TMG 800 mg/head/day in feed, average ± SE) is on record as 2.89 ± 0.11 kg. In data set [1] (setting [3]), this molecule had an ALB of 2.4 ± 0.1 g/dL, an ALP of 87± 5 mU/ml, a ChE of 0.19 ± 0.05 U/ml and a GOT of 26.0 ± 11.1 mU/ml. Moreover, in data set [1] (setting [3]), the GPT stood at 59.7 ± 12.3 mU/ml, the LDH is recorded as 97 ± 4 mU/ml, the PL is 459 ± 52 mg/dL and the T-CHO amounted to 934 ± 49 mg/dL. Also, in data set [1] (setting [3]), the TG was 169 ± 23 mg/dL. For the same molecule, the “occurrence of the atherosclerosis” value in the data set with WHHL rabbit model (setting [2]) is listed as “significantly repressing”. In addition, in the data set on WHHL rabbit model (area occupied by deposited lipid in whole area of aorta, TMG 800 mg/head/day in feed, 27th week, control 64.6±3.9, p < 0.05), the “Surface involvement (%)” value was 52.4 ± 4.7 %.
